Measurements from article PMC11124394, “Novel Combretastatin A-4 Analogs—Design, Synthesis, and Antiproliferative and Anti-Tubulin Activity” (Molecules, 2024).

Assays:
[1] = system: SW620 (metastatic colon cancer) cells; experiment: SRB cytotoxicity assay, SW620; assay type: cell-based; conditions: Homo sapiens, SW-620; SRB assay, 48 h culture, mean ± SD, at least three independent experiments; compounds marked * : low solubility, real values might be lower; read-out: Cytotoxicity IC50, SW620
Protocol: (§1) The antiproliferative activity was tested on human primary (SW480) and metastatic (SW620) colon cancer, human prostate cancer (PC3), human liver cancer (HepG2), human breast cancer (MDA), human lung cancer (A549), and human immortalized keratinocyte (HaCaT) cell lines obtained from the American Type Culture Collection (ATCC, Rockville, MD, USA). The cells were cultured in EMEM (SW480 and SW620), RPMI 1640 (PC3) or DMEM High Glucose (HepG2, MDA, A549, and HaCaT) with stable glutamine supplemented with 10% heat-inactivated fetal bovine serum (FBS), penicillin (100 U/mL), and streptomycin (100 µg/mL) in 37 °C and 5% CO2/95% air humified incubator. The cells were grown until 80–90% confluence and then were harvested with 0.25% trypsin and used for the experiments. All the reagents for the cell culture were provided by VWR Chemicals.
(§2) Cytotoxicity was tested with the sulforhodamine B (SRB) assay according to the National Cancer Institute protocol with slight modifications. Briefly, cells were seeded on a 96-well plate (5 × 10^3 cells per well). After 24 h incubation, zero-time control cells were fixed with TCA (final concentration 5%) for 1 h at 4 °C. […] The untreated cells were used as the control. After incubation, the cells were fixed with TCA (final concentration 5%) for 1 h at 4 °C, gently washed 4 times with tap water, and left for drying. The dried fixed cells were incubated with SRB solution (0.05% SRB in 1% acetic acid) for 30 min rt, washed four times with 1% acetic acid, and left for drying. The dried cells were dissolved in 10 mM Tris-base solution (pH 10.5) and the absorbance was read at 510 nm.
(§3) The cell viability was presented as a percent of SRB reduction in the treated cells versus that in control cells. The mean absorbance for control cells was assumed as 100%. No-cell control (blank well) absorbance was assumed as 0%, unless the compound was cytostatic, then 0% referred to zero-time control. The IC50 values were calculated using the GraphPad Prism 10.1.2 (324) (USA) software. The most cytotoxic compounds (8 and 20) were selected for further in vitro experiments.

tubulin = experiment: In vitro tubulin polymerization (turbidometry at 340 nm, BK004P kit); assay type: biochemical, porcine; conditions: for Effect on in vitro tubulin polymerization: 37 °C, 60 min, absorbance 340 nm, CA-4 5 μM, colchicine 5 μM, compounds 8 and 20 at 20 or 100 μM; for Concentration dependence of the acceleration of tubulin polymerization: 20 and 100 μM
Protocol: The kinetics of microtubule assembly was assessed by measuring absorbance at 340 nm over time.
The assembly of purified bovine tubulin was monitored using a BK004P kit, purchased from Cytoskeleton Inc. (Denver, CO, USA). The assay was performed according to the manufacturer’s instructions using the standard assay conditions. […] Light was scattered proportionally to the concentration of the polymerized microtubules in the assay. Then, the tubulin assembly was monitored by turbidometry at 340 nm in a MultiscanGo spectrophotometer (ThermoFisher Scientific, Carlsbad, CA, USA) for 60 min. The time dependence of the tubulin polymerization was presented in the form of graphs prepared in the GraphPad Prism 8.4.3.686 (Boston, MA, USA) software.

[2] = system: PC3 (prostate cancer) cells; experiment: SRB cytotoxicity assay, PC3; assay type: cell-based; conditions: Homo sapiens; SRB assay, 48 h culture, mean ± SD, at least three independent experiments; compounds marked * : low solubility, real values might be lower; read-out: Cytotoxicity IC50, PC3
Protocol: as §1, §2, §3

MDA cells = experiment: Cell cycle analysis (PI, flow cytometry), MDA; assay type: cell-based, human; conditions: 24 h treatment; for Cell cycle phase arrest (ratio G2/M to G0/G1): 1.5 and 2 nM CA4, 25, 30, 40 mM 8, 15, 20, 30 mM 20
Protocol: (§4) The cell cycle was assessed for the compounds 8 and 20 and the combretastatin CA4 as a reference compound. The compounds were most cytotoxic to the MDA and A549 cancerous cell lines; thus, these cell lines were selected for further analyses. The HaCaT cell line was chosen to represent non-cancer cells. For the experiment, the cells were seeded on 6-well plates (5 × 10^4 cells per well). After 24 h of incubation, the cells were treated with the compounds in selected concentrations (1.5 and 2 nM for CA4; […]) and incubated for the next 24 h. Then, the cells were detached with 0.25% trypsin, washed with 0.9% NaCl, and fixed with 70% ethanol at 4 °C for at least 16 h. For drying, the cells were washed twice with 0.9% NaCl, resuspended in 50 μg/mL propidium iodide (PI) and 100 μg/mL RNase in PBS and incubated for 30 min at 37 °C. The cell cycle distribution was analyzed by flow cytometer (FACS Verse, Becton, Dickinson and Company, Franklin Lakes, NJ, USA).

A549 cells = experiment: Cell cycle analysis (PI, flow cytometry), A549; assay type: cell-based, human; conditions: A549, 24 h treatment; for Cell cycle phase arrest (ratio G2/M to G0/G1): 1.5 and 2 nM CA4, 25, 30, 40 mM 8, 15, 20, 30 mM 20
Protocol: as §4

HaCaT cells = experiment: Cell cycle analysis (PI, flow cytometry), HaCaT; assay type: cell-based, human; conditions: 24 h treatment; for Cell cycle phase arrest (ratio G2/M to G0/G1): 1.5 and 2 nM CA4, 25, 30, 40 mM 8, 15, 20, 30 mM 20
Protocol: as §4

[3] = system: SW480 (primary colon cancer) cells; experiment: SRB cytotoxicity assay, SW480; assay type: cell-based; conditions: Homo sapiens, SW480; SRB assay, 48 h culture, mean ± SD, at least three independent experiments; compounds marked * : low solubility, real values might be lower; read-out: Cytotoxicity IC50, SW480
Protocol: as §1, §2, §3

[4] = SRB cytotoxicity assay, HaCaT; assay type: cell-based; conditions: human, 48 h culture, mean ± SD, at least three independent experiments, compounds marked * : low solubility, real values might be lower
Protocol: as §1, §2, §3

A549 (lung cancer) cells = experiment: SRB cytotoxicity assay, A549; assay type: cell-based; conditions: Homo sapiens, A549; SRB assay, 48 h culture, mean ± SD, at least three independent experiments; compounds marked * : low solubility, real values might be lower; read-out: Cytotoxicity IC50, A549
Protocol: as §1, §2, §3

[5] = system: MDA (breast cancer) cells; experiment: SRB cytotoxicity assay, MDA; assay type: cell-based; conditions: Homo sapiens; SRB assay, 48 h culture, mean ± SD, at least three independent experiments; compounds marked * : low solubility, real values might be lower; read-out: Cytotoxicity IC50, MDA
Protocol: as §1, §2, §3

[6] = system: HepG2 (liver cancer) cells; experiment: SRB cytotoxicity assay, HepG2; assay type: cell-based; conditions: Homo sapiens, HepG2; SRB assay, 48 h culture, mean ± SD, at least three independent experiments; compounds marked * : low solubility, real values might be lower; read-out: Cytotoxicity IC50, HepG2
Protocol: as §1, §2, §3

[7] = parameters: method as in earlier work; conditions: in contrast to the original compound; cited from earlier work
[8] = system: six human cancer cell lines (SW480, SW620, PC3, HepG2, MDA, A549) and HaCaT; experiment: SRB cytotoxicity assay, whole panel; assay type: cell-based; conditions: Homo sapiens, depending on the compound and cell line, read-out: IC50 over the cell line panel
Protocol: The antiproliferative properties of the studied combretastatin derivatives were tested on six human cancer cell lines, including primary colon (SW480), metastatic colon (SW620), prostate (PC3), liver (HepG2), breast (MDA), and lung (A549) cancer cells, and non-tumor human immortalized keratinocyte cell line (HaCaT) using the sulforhodamine B (SRB) assay. […] No selectivity was observed against the tumor cell lines when compared to that against the non-tumor cell line. Nevertheless, these values were much higher than the IC50 of the reference compounds (<0.2 μM).
as §1, §2, §3

[9] = HaCaT immortalized keratinocyte cells (non-tumor cell line)

In the case of COc1ccc(/C=C\c2cc(OC)c(OC)c(OC)c2)cc1O [CA4, combretastatin A-4], the IC50 [1] is reported as 0.00221 ± 0.00088 µM, the “Effect on in vitro tubulin polymerization” value (from here on “Effect”) (tubulin) is reported as “inhibited tubulin polymerization” and the IC50 [2] is reported as 0.0021 ± 0.00026 µM. The “DNA fragmentation (subG1 phase)” value (MDA cells) was “statistically significant differences between subG1 populations were observed”, the “Cell cycle phase arrest (ratio G2/M to G0/G1)” value (MDA cells) was “no statistically significant differences” and the “Cell cycle phase arrest (ratio G2/M to G0/G1)” value (A549 cells) was “no statistically significant differences”. The “DNA fragmentation (subG1 phase)” value (HaCaT cells) was “appearance of the subG1 phase was observed”, the “Cell cycle phase arrest (ratio G2/M to G0/G1)” value (HaCaT cells) was “G2 phase arrest” and the IC50 [3] was 0.00281 ± 0.00017 µM. It also gave an IC50 at 48 h ([4]; non-tumor cell line) of 0.00427 ± 0.00047 µM, an IC50 (A549 (lung cancer) cells) of 0.00343 ± 0.00096 µM and an IC50 [5] of 0.00372 ± 0.00027 µM. It also gave an IC50 [6] of 0.00158 ± 0.00019 µM.
In the case of COc1ccc(/C=C\c2cc(OC)c(OC)c(OC)c2)cc1OP(=O)(O)O [Combretastatin A4 phosphate, combretastatin A-4 disodium phosphate], the Water solubility [7] is listed as “water-soluble”.
For COc1ccc(/C(=C\c2cc(OC)c(OC)c(OC)c2)C(=O)OCCCCBr)cc1Br [Compound 8], the IC50 [1] was 24.2 ± 8.4 µM, the “Concentration dependence of the acceleration of tubulin polymerization” value (tubulin) was “concentration-dependent” and the “Effect” value (tubulin) was “enhanced tubulin polymerization”. For the same compound, the IC50 [2] was 31 ± 5.5 µM, the “DNA fragmentation (subG1 phase)” value (MDA cells) was “statistically significant differences between subG1 populations were observed” and the “Cell cycle phase arrest (ratio G2/M to G0/G1)” value (MDA cells) was “not observed”. For the same compound, the “DNA fragmentation (subG1 phase)” value (A549 cells) was “certain differences were noted”, the “Cell cycle phase arrest (ratio G2/M to G0/G1)” value (A549 cells) was “G0/G1 phase arrest” and the “DNA fragmentation (subG1 phase)” value (HaCaT cells) was “appearance of the subG1 phase was observed”. For the same compound, the “Cell cycle phase arrest (ratio G2/M to G0/G1)” value (HaCaT cells) was “G0/G1 phase arrest”, the IC50 [3] was 32.7 ± 6.7 µM and the IC50 at 48 h [4, 9] was 23.9 ± 3.9 µM. For the same compound, the IC50 [8] was 18.8 to 32.7 µM, the IC50 (A549 (lung cancer) cells) was 19.6 ± 2 µM and the IC50 [5] was 23.1 ± 7.7 µM. It also gave an IC50 [6] of 25.5 ± 6.3 µM.
For CCCCN(CCCC)C(=O)/C(=C/c1cc(OC)c(OC)c(OC)c1)c1ccc(OC)c(Br)c1 [Compound 20], the IC50 [1] was 20.9 ± 2.9 µM, the “Concentration dependence of the acceleration of tubulin polymerization” value (tubulin) was “on a similar level” and the “Effect” value (tubulin) was “enhanced tubulin polymerization”. The IC50 [2] was 23.7 ± 10.3 µM, the “Cell cycle phase arrest (ratio G2/M to G0/G1)” value (MDA cells) was “G0/G1 phase arrest” and the “DNA fragmentation (subG1 phase)” value (A549 cells) was “certain differences were noted”. For the same compound, the “Cell cycle phase arrest (ratio G2/M to G0/G1)” value (A549 cells) was “G0/G1 phase arrest”, the “DNA fragmentation (subG1 phase)” value (HaCaT cells) was “appearance of the subG1 phase was observed” and the “Cell cycle phase arrest (ratio G2/M to G0/G1)” value (HaCaT cells) was “G0/G1 phase arrest”. It also gave an IC50 [3] of 18.8 ± 0.8 µM, an IC50 at 48 h [4, 9] of 20.5 ± 9.7 µM and an IC50 [8] of 18.8 to 32.7 µM. It also gave an IC50 (A549 (lung cancer) cells) of 19.4 ± 2.2 µM, an IC50 [5] of 19 ± 7.1 µM and an IC50 [6] of 25.8 ± 9.6 µM.
